Data: patent US4424342A, “Anthracycline antibiotic compounds” (priority 1981, dated 1984)
Converted amounts (≈) assume the structure as drawn. “Also recorded” adds a separate entry of the source. Like-named read-outs stand apart in the source and are kept apart here.

Legend:
L1210 leukemia cells = experiment: Growth inhibition of L1210 leukemia culture cells in vitro; assay type: cell-based, mouse; details: for IC50: Mus musculus
Description: (§1) The 50% inhibitory concentration of trisarubicinol on L1210 leukemia cells was calculated by culturing 5×10^4 cells/ml at 37° C. in 5% CO2 -air in 20% calf serum-supplemented RPMI 1640 medium (Roswell Park Memorial Institute 1640 medium) containing none (control), 0.01 and 0.05 μg/ml of trisarubicinol. In addition. the inhibitory effect of the new anthracycline compound on nucleic acid synthesis was examined as follows: after 5×10^5 cells/ml of L1210 leukemia cells were preincubated in 5% CO2 -air at 37° C. for 1-2 hours in RPMI medium containing 10% calf serum, varied concentrations of trisarubicinol were added and incubated for 15 minutes under the same conditions. Then 0.05 μCi/ml each of ^14 C-uridine or ^14 C-thymidine was added to the cell suspensions and the mixtures were incubated at 37° C. for a further 60 minutes. At the end of incubation, cold 10% trichloroacetic acid was added to stop the incorporation of the radio-labelled compound. The acid-insoluble fractions were collected by centrifugation; rinsed three times with 5% trichloroacetic acid; and dissolved in formic acid for radiometry. The 50% inhibitory concentration of the new anthracycline compound was calculated from the radiometric data of the acid-insoluble fractions of the control and test reaction mixtures.

[1] = test system: L1210 leukemia cells, DNA synthesis; experiment: DNA synthesis inhibition in L1210 leukemia culture cells (14C-thymidine incorporation); assay type: cell-based; details: Mus musculus
Description: as §1

[2] = test system: L1210 leukemia cells, RNA synthesis; experiment: RNA synthesis inhibition in L1210 leukemia culture cells (14C-uridine incorporation); assay type: cell-based, mouse; details: for IC50: Mus musculus
Description: as §1

L1210 mouse leukemia = experiment: In vivo activity on L1210 mouse leukemia, prolongation of survival time; design: species or system mouse (CDF1 mice); details: for prolongation of survival time (T/C): i.p. every day for 10 days, CDF1 mice
Description: The therapeutic effect of trisarubicinol was examined by calculating the prolongation of the survival time of treated animals relative to untreated ones (receiving physiological saline). In practice, 1×10^5 mouse leukemia cells each were intraperitoneally transplanted into CDF1 mice and varied doses of trisarubicinol were intraperitoneally injected every day for 10 days from 24 hours after cell transplantation.

Acute toxicity = assay type: in vivo
[3] = test system: various experimental tumors in animals; experiment: Antitumor activity on various experimental tumors in animals; details: in vivo

Row | SMILES | IC50 (L1210 leukemia cells; L1210 culture cells, 5×10^4 cells/ml, 37° C., 20% calf serum-supplemented RPMI 1640, read-out: 50% inhibitory concentration (IC50), cell growth inhibition) | IC50 ([1]; L1210 culture cells, 15 min with compound, then 60 min with 14C-thymidine, read-out: 50% inhibitory concentration (IC50), DNA synthesis inhibition) | IC50 ([2]; L1210 culture cells, 15 min with compound, then 60 min with 14C-uridine, read-out: 50% inhibitory concentration (IC50), RNA synthesis inhibition) | growth inhibition of L1210 cells (in words) (L1210 leukemia cells; L1210 cultured cells / at low doses) | IC50 (L1210 leukemia cells; L1210, read-out: 50% inhibitory concentration (IC50), cell growth inhibition) | antitumor activity compared with carminomycin I (in words) (L1210 leukemia cells; versus carminomycin I, L1210) | IC50 ([1]; L1210, read-out: 50% inhibitory concentration (IC50), DNA synthesis inhibition) | IC50 ([2]; L1210, read-out: 50% inhibitory concentration (IC50), RNA synthesis inhibition) | RNA synthesis inhibition compared with carminomycin I (in words) ([2]; at very low concentrations, versus carminomycin I) | effect on survival time of leukemia cells-holding mice / therapeutic effect (in words) (L1210 mouse leukemia; L1210 mouse leukemia) | prolongation of survival time (T/C) (L1210 mouse leukemia; dose 0.63 (head prints "%")) | prolongation of survival time (T/C) (L1210 mouse leukemia; dose 1.25 (head prints "%")) | prolongation of survival time (T/C) (L1210 mouse leukemia; dose 2.5 (head prints "%")) | prolongation of survival time (T/C) (L1210 mouse leukemia; dose 5.0 (head prints "%")) | prolongation of survival time (T/C) (L1210 mouse leukemia; dose 7.5 (head prints "%")) | prolongation of survival time (T/C) (L1210 mouse leukemia; dose 10 (head prints "%")) | LD50 (Acute toxicity; in vivo, ip) | toxicity (in words) (Acute toxicity; relative to carminomycin I, general statement) | antitumor activity on various experimental tumors in animals (in words) [3]
1 | CC(=O)[C@]1(O)Cc2c(O)c3c(c(O)c2[C@@H](O[C@H]2C[C@H](N)[C@H](O)[C@H](C)O2)C1)C(=O)c1c(O)cccc1C3=O [carminomycin I, reference compound] | 0.01 µg/mL (≈ 0.0195 µM) | 0.2 µg/mL (≈ 0.389 µM) | 0.29 µg/mL (≈ 0.565 µM) |  |  |  |  |  |  |  |  |  |  |  |  |  |  |  | 
2 | CC(O)C1(O)Cc2c(O)c3c(c(O)c2C(O[C@H]2C[C@H](N(C)C)[C@H](O[C@H]4C[C@H](O)[C@H](O[C@H]5CCC(=O)[C@H](C)O5)[C@H](C)O4)[C@H](C)O2)C1)C(=O)c1c(O)cccc1C3=O (stereo partly shown) [trisarubicinol] |  |  |  | markedly inhibits the growth and nucleic acid synthesis in cultured cells of mouse leukemia (L1210); also recorded: significantly inhibits the growth of L1210 mouse leukemia cells at low doses | 0.01 µg/mL (≈ 0.0127 µM) | same or better antitumor activity | 0.38 µg/mL (≈ 0.484 µM) | 0.06 µg/mL (≈ 0.0764 µM) | better inhibition of RNA synthesis at very low concentrations | marked prolonging effect on the survival time of leukemia cells-holding mice; also recorded: strong therapeutic effect on mouse leukemia (L1210) | 122% | 124% | 159% | 216% | 243% | 131% | 40 to 50 mg/kg | less toxic than carminomycin I; also recorded: unique low toxicity | excellent antitumor activity on various experimental tumors in animals
